Where two headings read alike, the source gives them in different places.
Tests used:
[1] = test system: SOC (store operated calcium channel); experiment: Measurement of SOC IC50 (thapsigargin store depletion, calcium re-addition, CHO cells); format: cell-based; conditions: read-out: SOC IC50
Procedure: The SOC (store operated calcium channel)-suppressive action can be measured by the method described in the Example and using, for example, FDSS 3000.
CHO cell culture medium was replaced with a BSS solution which is an extracellular fluidfree of calcium, the compound of the present invention was added 1 min later, and 1 μM thapsigargin was allowed to act thereon 2 min later to deplete intracellular calcium store. […]

[2] = test system: Truncated N-terminal huntington 150 Q-EGFP-Neuron 2a cells; experiment: Measurement of x-Fold (polyglutamine aggregation inhibitory activity); format: cell-based
Procedure: In the present invention, the polyglutamine aggregation inhibitory activity (x-Fold) can be measured, for example, by the method described in the Example.
The number of the aggregated cells, and the total number of cells were counted by Array Scan V T1 (manufactured by Cellomics, Pittuburg, USA), and the ratio of the aggregated cells to the total number of cells was determined (x-Fold). […]

transglutaminase (TGase) = experiment: Measurement of TG (TGase inhibitory activity, monodansyl cadaverine / N,N-dimethylcasein fluorescence, FDSS 3000); format: biochemical
Method in brief: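 Compound (1 μL of 10 mM stock) added to 0.1 mL reaction: 100 mM HEPES-NaOH pH 7.5, 1 mM CaCl2, 20 μM monodansyl cadaverine, 0.05 mg/mL N,N-dimethylcasein, 5 μg/mL TGase. Rate of fluorescence change at 340 nm measured; DMSO control set to 100; TG50 is the concentration halving activity.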

[3] = Cricetulus griseus, CHO, CHO cells, 1 μM thapsigargin, 2 mM calcium chloride
[4] = Cricetulus griseus, CHO, Table 1
[5] = polyglutamine aggregation inhibitory activity, Table 1
[6] = ratio of aggregated cells to total number of cells, compound 20 μM, 20 hr, almost 1 without compound, smaller = stronger inhibition
[7] = TGase activity with compound (10 mM, 1 μL in 0.1 ml enzyme reaction solution), DMSO control taken as 100
[8] = TGase inhibitory activity value, Table 1
[9] = CHO cells, 1 μM thapsigargin, 2 mM calcium chloride
[10] = polyglutamine aggregation, Truncated N-terminal huntington 150 Q-EGFP-Neuron 2a cells
[11] = TGase inhibitory activity measurement, unit not given

Compound | IC50 [1, 3] | IC50 [1, 4] | x-Fold [2, 5] | x-Fold [2, 6] | TGase activity remaining (% of DMSO control = 100) (transglutaminase (TGase); [7]) | TGase activity remaining (% of DMSO control = 100) (transglutaminase (TGase); [8]) | IC50 [1, 9] | x-Fold [2, 10] | TGase activity remaining (% of DMSO control = 100) (transglutaminase (TGase); [11]) | other results
NCCOB(c1ccccc1)c1ccc(COc2ccc(B(OCCN)c3ccccc3)cc2)cc1 [Example 371, (4-phenylaminoethoxyborylphenyl)(4′-phenylaminoethoxyborylbenzyl)ether] | 2000 nM | 2000 nM | 0.85 | 0.85 | 16 | 16 |  |  |  | 
CN(C)CCSB(c1ccccc1)c1ccccc1 [Example 294, diphenyl dimethylaminoethylthioborane] | 2000 nM | 2000 nM | 0.96 | 0.96 | 114 | 114 |  |  |  | 
NC(=O)CCC(N)C(=O)OB(c1ccccc1)c1ccccc1 (stereo not shown) [Example 269, diphenyl(glutaminate-O,N)borane] | 3000 nM | 3000 nM |  | 1.01 | 95 |  |  |  |  | x-Fold ([2]; polyglutamine aggregation inhibitory activity, Table 1, listed as 879): 1.01; TGase activity remaining (% of DMSO control = 100) (transglutaminase (TGase); TGase inhibitory activity value, Table 1, listed as 879): 95
c1ccc(CNCCOB(c2ccccc2)c2ccc(COCc3ccc(B(OCCNCc4ccccc4)c4ccccc4)cc3)cc2)cc1 [Example 456, bis(4,4′-(phenyl-benzylaminoethoxyboryl)benzyl)ether] |  |  |  | 0.87 | 29 |  | 500 nM | 0.87 | 29 | 
c1ccc(B(OCC2CCCN2)c2ccc(COCc3ccc(B(OCC4CCCN4)c4ccccc4)cc3)cc2)cc1 (stereo not shown) [Example 452, bis(4,4′-(phenyl-2-pyrrolidinemethoxyboryl)benzyl)ether] |  |  |  | 0.96 | 29 |  | 500 nM | 0.96 | 29 | 
CNCCOB(c1ccccc1)c1ccc(COc2ccc(B(OCCNC)c3ccccc3)cc2)cc1 [Example 427, (4-phenyl-N-methylaminoethoxyborylphenyl) (4′-phenyl-N-methylaminoethoxyborylbenzyl)ether] |  |  | 1.02 | 0.73 | 20 |  | 800 nM | 0.73 | 20 | 
Cc1ccc(B(OCC2CCCCN2)c2ccc(C)c(Cl)c2)cc1Cl (stereo not shown) [Example 247, di(3-chloro-4-methylphenyl) 2-piperidinomethylborinate] | 700 nM |  |  | 0.91 | 99 |  |  |  |  | 
NCCSB(c1ccccc1)c1ccc(-c2ccc(B(SCCN)c3ccccc3)cc2)cc1 [Example 9, 4,4′(phenyl-2-aminoethylthioboryl)diphenyl] |  |  | 0.87 | 0.87 | 12 | 12 | 500 nM |  |  | 
CCCCNCCOB(c1ccccc1)c1ccc(COCc2ccc(B(OCCNCCCC)c3ccccc3)cc2)cc1 [Example 454, bis(4,4′-(phenyl-butylaminoethoxyboryl)benzyl)ether] |  |  |  | 0.97 | 15 |  | 500 nM | 0.97 | 15 | 
Cc1ccc(B(SCCN(C)C)c2ccc(C)c(Cl)c2)cc1Cl [Example 295, di(3-chloro-4-methylphenyl)dimethylaminoethylthioborane] | 800 nM | 800 nM | 0.92 | 0.92 | 107 | 107 |  |  |  | 
Cc1ccc(Cl)cc1B(OCCN)c1cc(Cl)ccc1C [Example 244, di(5-chloro-2-methylphenyl) 2-aminoethylborinate] | 1000 nM |  |  | 0.76 | 74 |  |  |  |  | 
NCCOB(c1ccccc1)c1cccc(COCc2ccccc2B(OCCN)c2ccccc2)c1 [Example 334] | 300 nM | 300 nM | 1.02 | 1.02 | 21 | 21 |  |  |  | 
OB(c1ccccc1)c1cccc(B(O)c2ccccc2)c1 [Example 147, 1,3-bis(phenylhydroxyboryl)benzene] |  |  |  | 0.87 | 101 |  | 20000 nM |  |  | 
NC(CS)C(=O)OB(c1ccccc1)c1ccccc1 (stereo not shown) [Example 266, diphenyl(cysteinate-O,N)borane] | 3000 nM | 3000 nM | 0.87 | 0.87 | 84 | 84 |  |  |  | 
NCCC(N)C(=O)OB(c1ccccc1)c1cccc(COCc2cccc(B(OC(=O)C(N)CCN)c3ccccc3)c2)c1 (stereo not shown) [Example 472, bis(3,3′-(phenyl-2,4-diaminobutyric acid boryl)benzyl)ether] |  |  |  | 0.95 | 47 |  | 1000 nM | 0.95 | 47 | 
bis(3-chloro-4-methylphenyl 2-pyridylmethoxyborylphenyl)ether [Example 117] |  |  |  | 0.06 | 108 |  | 1500 nM |  |  | 
Cc1ccc(B(OCCN)c2ccc(COCc3ccc(B(OCCN)c4ccc(C)c(Cl)c4)cc3)cc2)cc1Cl [Example 420, bis(4,4′-(3-chloro-4-methylphenyl-aminoethoxyboryl)benzyl)ether] |  |  |  | 0.81 | −3 |  | 1200 nM | 0.81 | −3 | 
COc1ccc(B(OCCN)c2ccc(COCc3ccc(B(OCCN)c4ccc(OC)cc4)cc3)cc2)cc1 [Example 412, bis(4,4′-(p-methoxyphenyl-aminoethoxyboryl)benzyl)ether] |  |  |  | 0.89 | 65 |  | 2000 nM | 0.89 | 65 | 
Cc1ccc(B(OC(=O)C(N)C(C)O)c2ccc(C)c(Cl)c2)cc1Cl (stereo not shown) [Example 291, di(3-chloro-4-methylphenyl)(allothreoninate-O,N)borane] | 500 nM | 500 nM | 1.02 | 1.02 | 50 | 50 |  |  |  | 
NC(=O)CC(N)C(=O)OB(c1ccccc1)c1cccc(COCc2cccc(B(OC(=O)C(N)CC(N)=O)c3ccccc3)c2)c1 (stereo not shown) [Example 404, bis(3,3′-(phenyl-asparagineboryl)benzyl)ether] | 4000 nM |  |  | 1.07 | 105 |  |  |  |  | IC50 ([1]; Cricetulus griseus, CHO, CHO cells, thapsigargin store depletion): 4000 nM; x-Fold ([2]; polyglutamine aggregation, Truncated N-terminal huntington 150 Q-EGFP-Neuron 2a cells, listed as 2023): 1.07; TGase activity remaining (% of DMSO control = 100) (transglutaminase (TGase); TGase inhibitory activity measurement, unit not given, listed as 2023): 105
c1ccc(COB(c2ccc(Oc3ccc(B(OCc4ccccn4)c4cccc5ccccc45)cc3)cc2)c2cccc3ccccc23)nc1 [Example 443, bis(4,4′-(naphthyl-2-pyridylmethoxyboryl)phenyl)ether] |  |  |  | 0.63 | 84 |  | 3000 nM | 0.63 | 84 | 
Cc1ccc(B(OCCNCc2ccccc2)c2ccc(C)c(Cl)c2)cc1Cl [Example 211, di(3-chloro-4-methylphenyl)benzylaminoethyl borinate] | 1000 nM | 1000 nM | 0.99 | 0.99 | 86 | 86 |  |  |  | 
NC(=O)CC(N)C(=O)OB(c1ccccc1)c1ccccc1 (stereo not shown) [Example 270, diphenyl(asparaginate-O,N)borane] | 700 nM | 700 nM |  | 0.54 | 111 |  |  |  |  | x-Fold ([2]; polyglutamine aggregation inhibitory activity, Table 1, listed as 855): 0.54; TGase activity remaining (% of DMSO control = 100) (transglutaminase (TGase); TGase inhibitory activity value, Table 1, listed as 855): 111
COc1ccc(B(O)c2ccc(COCc3ccc(B(O)c4ccc(OC)cc4)cc3)cc2)cc1 [Example 410, bis(4,4′-(p-methoxy-phenyl-hydroxyboryl)benzyl)ether] |  |  |  | 0.90 | 130 |  | 2000 nM |  |  | 
NCCC(N)C(=O)OB(c1ccccc1)c1ccccc1 (stereo not shown) [Example 263, diphenyl(2,4-diaminolactonate-O,N)borane] | 3000 nM | 3000 nM |  | 0.89 | 146 |  |  |  |  | x-Fold ([2]; polyglutamine aggregation inhibitory activity, Table 1, listed as 2045): 0.89; TGase activity remaining (% of DMSO control = 100) (transglutaminase (TGase); TGase inhibitory activity value, Table 1, listed as 2045): 146

Reference: patent US8853424B2 (Japan Science and Technology Agency, priority 2008, dated 2014)
